From patent US20080292584A1 (priority 2005, published 2008)

Columns and labels:
CYP2B6 [1] = test: Induction/inhibition of CYP2B6 activity in cryopreserved human hepatocytes (S-mephenytoin); details: 1 mM Phenobarbital; each hepatocyte donor
Description: (§1) Hepatocytes from three human donors were obtained from a cryopreserved hepatocyte bank (In Vitro Technologies, Inc., USA). After thawing, viable hepatocytes were transferred to collagen-coated 48-well plates for attachment in plating medium (DMEM stock (Dulbecco's modified Eagle's medium, supplemented with bovine serum albumin, fructose, N-(2-hydroxyethyl)piperazine-N′-(2-ethanesulfonate) (HEPES), and sodium bicarbonate), supplemented with antibiotics, bovine serum, hydrocortisone, insulin and minimum essential medium (MEM) nonessential amino acids). After attachment to the collagen matrix, plating medium was replaced with sandwich medium (plating medium supplemented with VITROGEN) and incubated until use.
(§2) The supplemented KHB was replaced with 150 μL supplemented KHB containing the appropriate isoform-selective substrate and incubated for 4 hrs prior to termination by adding 150 μL ice-cold methanol, except for the CYP2C8 incubations which were terminated by adding 150 μL acetonitrile.
(§3) All substrates were dissolved in acetonitrile.
(§4) Replicate trials and controls were performed. […] Additionally, reference control samples were included to evaluate inducibility of CYP2B6, CYP2C9, and CYP2C19 in the test system.
(§5) Mean specific activity values with associated p-values≦0.05 were deemed to be statistically significant.

CYP2E1 = CYP2E1 (Homo sapiens, UniProt P05181); test: Chemical inhibition of metaxalone turnover in human liver microsomes, CYP2E1 inhibitor clomethiazole; details: both, human, microsomes, pH 7.4, Inhibition of metaxalone disappearance (% inhibition of turnover)
Chain of CYP2E1 (P05181 whole entry): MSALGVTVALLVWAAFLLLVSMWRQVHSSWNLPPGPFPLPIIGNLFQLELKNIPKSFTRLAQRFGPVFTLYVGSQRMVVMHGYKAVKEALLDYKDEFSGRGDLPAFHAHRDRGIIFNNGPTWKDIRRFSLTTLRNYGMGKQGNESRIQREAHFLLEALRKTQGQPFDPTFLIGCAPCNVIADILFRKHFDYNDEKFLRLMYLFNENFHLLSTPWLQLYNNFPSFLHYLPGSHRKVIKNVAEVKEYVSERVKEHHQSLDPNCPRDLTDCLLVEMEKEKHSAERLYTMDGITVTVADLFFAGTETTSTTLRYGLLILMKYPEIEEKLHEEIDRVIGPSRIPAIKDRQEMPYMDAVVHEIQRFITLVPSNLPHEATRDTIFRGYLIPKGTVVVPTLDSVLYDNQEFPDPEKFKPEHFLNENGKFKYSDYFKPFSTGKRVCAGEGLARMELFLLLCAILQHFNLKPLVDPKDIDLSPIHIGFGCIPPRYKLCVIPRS

CYP1A2 [2] = biological target: T1, CYP1A2 (Homo sapiens, UniProt P05177); test: Chemical inhibition of metaxalone turnover in human liver microsomes, CYP1A2 selective inhibitor furafylline; details: both, pooled human liver microsomes
T1 sequence (P05177 1-516): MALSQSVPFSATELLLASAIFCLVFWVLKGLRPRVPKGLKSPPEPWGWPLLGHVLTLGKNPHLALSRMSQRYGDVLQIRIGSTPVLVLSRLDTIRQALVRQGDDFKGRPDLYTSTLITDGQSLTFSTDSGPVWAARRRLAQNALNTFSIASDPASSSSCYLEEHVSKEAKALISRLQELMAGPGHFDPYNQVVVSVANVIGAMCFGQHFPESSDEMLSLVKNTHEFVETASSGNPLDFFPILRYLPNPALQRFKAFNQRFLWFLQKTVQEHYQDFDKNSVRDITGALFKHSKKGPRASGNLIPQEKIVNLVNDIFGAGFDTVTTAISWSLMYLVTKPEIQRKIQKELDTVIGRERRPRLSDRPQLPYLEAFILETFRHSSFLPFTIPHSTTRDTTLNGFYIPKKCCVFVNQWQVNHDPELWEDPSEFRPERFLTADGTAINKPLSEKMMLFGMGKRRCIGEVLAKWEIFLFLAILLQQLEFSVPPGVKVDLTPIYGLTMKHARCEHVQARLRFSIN

CYP3A4 = CYP3A4 (Homo sapiens, UniProt P08684); test: in vitro; details: both, pooled human liver microsomes
Chain of CYP3A4 (P08684 whole entry): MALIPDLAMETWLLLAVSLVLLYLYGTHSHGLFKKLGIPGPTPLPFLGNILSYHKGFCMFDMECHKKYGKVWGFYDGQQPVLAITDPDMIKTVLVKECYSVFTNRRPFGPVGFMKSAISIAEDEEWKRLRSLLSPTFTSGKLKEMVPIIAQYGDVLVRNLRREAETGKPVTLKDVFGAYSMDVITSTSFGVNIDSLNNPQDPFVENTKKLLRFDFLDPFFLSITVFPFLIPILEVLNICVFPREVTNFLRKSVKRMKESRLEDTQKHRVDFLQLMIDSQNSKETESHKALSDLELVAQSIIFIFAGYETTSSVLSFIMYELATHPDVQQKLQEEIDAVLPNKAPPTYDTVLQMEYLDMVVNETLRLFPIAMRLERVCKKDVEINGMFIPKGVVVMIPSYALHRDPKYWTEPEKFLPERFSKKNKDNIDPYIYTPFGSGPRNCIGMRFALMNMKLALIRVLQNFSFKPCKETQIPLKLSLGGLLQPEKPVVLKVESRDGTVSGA

CYP1A2 [3] = test: Induction/inhibition of CYP1A2 activity in cryopreserved human hepatocytes after 48 h exposure (phenacetin); details: human, 48 h, 50 μM
Description: as §1, §2, §3, §4, §5

CYP2A6 = test: Chemical inhibition of metaxalone turnover in human liver microsomes, CYP2A6 inhibitor pilocarpine; details: both, human, microsomes, pH 7.4, Inhibition of metaxalone disappearance (% inhibition of turnover)
CYP2C8 = biological target: T2, CYP2C8 (Homo sapiens, UniProt P10632); test: Chemical inhibition of metaxalone turnover in human liver microsomes, CYP2C8 inhibitor quercetin; details: both, human, pooled human liver microsomes
T2 sequence (P10632 1-490): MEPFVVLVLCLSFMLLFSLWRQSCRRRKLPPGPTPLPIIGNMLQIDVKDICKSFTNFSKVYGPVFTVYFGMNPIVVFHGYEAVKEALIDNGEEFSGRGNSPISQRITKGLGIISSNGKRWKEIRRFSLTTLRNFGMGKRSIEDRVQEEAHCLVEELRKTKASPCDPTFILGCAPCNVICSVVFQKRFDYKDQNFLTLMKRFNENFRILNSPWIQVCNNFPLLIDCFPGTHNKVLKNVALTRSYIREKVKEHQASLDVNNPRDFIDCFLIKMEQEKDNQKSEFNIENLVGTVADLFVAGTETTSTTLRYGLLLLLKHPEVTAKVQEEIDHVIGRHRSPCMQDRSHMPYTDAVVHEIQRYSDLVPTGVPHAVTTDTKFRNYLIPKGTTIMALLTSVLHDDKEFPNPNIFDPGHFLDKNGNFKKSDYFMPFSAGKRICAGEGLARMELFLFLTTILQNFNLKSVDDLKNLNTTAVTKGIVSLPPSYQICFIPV

CYP2C9 = CYP2C9 (Homo sapiens, UniProt P11712); test: in vitro; details: both, microsomes, pH 7.4, Inhibition of metaxalone disappearance (% inhibition of turnover)
Chain of CYP2C9 (P11712 whole entry): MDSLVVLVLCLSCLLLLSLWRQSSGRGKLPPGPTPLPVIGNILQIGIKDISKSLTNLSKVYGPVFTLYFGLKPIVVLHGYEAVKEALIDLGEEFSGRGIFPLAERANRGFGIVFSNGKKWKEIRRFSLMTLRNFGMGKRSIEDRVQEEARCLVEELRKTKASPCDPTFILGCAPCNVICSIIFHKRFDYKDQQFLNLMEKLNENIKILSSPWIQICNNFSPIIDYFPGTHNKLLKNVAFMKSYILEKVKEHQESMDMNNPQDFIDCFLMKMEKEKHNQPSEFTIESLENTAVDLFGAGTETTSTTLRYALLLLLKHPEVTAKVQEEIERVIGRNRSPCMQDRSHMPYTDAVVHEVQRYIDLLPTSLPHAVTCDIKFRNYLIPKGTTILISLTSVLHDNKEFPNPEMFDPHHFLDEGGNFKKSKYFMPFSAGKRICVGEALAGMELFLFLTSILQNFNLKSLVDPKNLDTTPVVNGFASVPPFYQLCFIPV

CYP2B6 [4] = test: Chemical inhibition of metaxalone turnover in human liver microsomes, CYP2B6 inhibitor thio-TEPA; details: both, human, microsomes, pH 7.4, Inhibition of metaxalone disappearance (% inhibition of turnover)
[5] = pH 7.4, probe metaxalone 0.75 μM (disappearance)
[6] = pH 7.4, probe metaxalone 7.5 μM (disappearance)

With `CCC1(c2ccccc2)C(=O)NC(=O)NC1=O` [Phenobarbital] the “induction (reference control)” value (CYP2B6 [1]) was “statistically significant amount of induction”.
With `Cc1ncsc1CCCl` [clomethiazole] the inhibition at 60 min (CYP2E1; 0.75 μM metaxalone) was 113 ± 21% and the inhibition at 60 min (CYP2E1; 7.5 μM metaxalone) was 98.6 ± 4.9%.
With `Cc1nc2c([nH]1)c(=O)n(C)c(=O)n2Cc1ccco1` [furafylline] the inhibition at 60 min (CYP1A2 [2]; [5]) was 111 ± 29% and the inhibition at 60 min (CYP1A2 [2]; [6]) was 80.6 ± 2.4%.
Compound `CC(=O)N1CCN(c2ccc(OCC3COC(Cn4ccnc4)(c4ccc(Cl)cc4Cl)O3)cc2)CC1` (stereo not shown) [ketoconazole] has an inhibition at 60 min (CYP3A4; [5]) of 126 ± 5% and an inhibition at 60 min (CYP3A4; [6]) of 130 ± 18%.
`COc1ccc2[nH]c([S+]([O-])Cc3ncc(C)c(OC)c3C)nc2c1` (stereo not shown) [omeprazole] gave an induction (CYP1A2 [3]) of no less than 200%.
`CC[C@@H]1C(=O)OC[C@@H]1Cc1cncn1C` [pilocarpine] showed an inhibition at 60 min (CYP2A6; 0.75 μM metaxalone) of 46.2 ± 5.7% and an inhibition at 60 min (CYP2A6; 7.5 μM metaxalone) of 50.8 ± 6.9%.
`O=c1c(O)c(-c2ccc(O)c(O)c2)oc2cc(O)cc(O)c12` [quercetin] was tested, and the inhibition at 60 min (CYP2C8; [5]) was 77.2 ± 13.6% and the inhibition at 60 min (CYP2C8; [6]) was 84.7 ± 18.3%.
With `Nc1ccc(S(=O)(=O)Nc2ccnn2-c2ccccc2)cc1` [sulfaphenazole] the inhibition at 60 min (CYP2C9; 0.75 μM metaxalone) was 81.4 ± 0.3% and the inhibition at 60 min (CYP2C9; 7.5 μM metaxalone) was 52.8 ± 2.9%.
`S=P(N1CC1)(N1CC1)N1CC1` [thio-TEPA] gave an inhibition at 60 min (CYP2B6 [4]; 0.75 μM metaxalone) of 58.3 ± 2.4% and an inhibition at 60 min (CYP2B6 [4]; 7.5 μM metaxalone) of 43.3 ± 13.8%.
